Data published in patent US20140090094A1, “MODULATORS OF SLC22A7” (BAYER INTELLECTUAL PROPERTY GmbH, priority 2011, published 2014).

Tests used:
[1] = molecular target: T1, OAT1h (Homo sapiens, UniProt Q4U2R8); assay: uptake/accumulation in 293 cells expressing OAT1h; assay type: cell-based; details: for clearance: 1 min uptake, 0.1 μmol/l radiotracer
T1 construct: expressed in transfected cells; host or cells: 293 cells (HEK-293), pEBTetD plasmid, doxycycline-inducible
T1 sequence (Q4U2R8 1-550 isoform Q4U2R8-2): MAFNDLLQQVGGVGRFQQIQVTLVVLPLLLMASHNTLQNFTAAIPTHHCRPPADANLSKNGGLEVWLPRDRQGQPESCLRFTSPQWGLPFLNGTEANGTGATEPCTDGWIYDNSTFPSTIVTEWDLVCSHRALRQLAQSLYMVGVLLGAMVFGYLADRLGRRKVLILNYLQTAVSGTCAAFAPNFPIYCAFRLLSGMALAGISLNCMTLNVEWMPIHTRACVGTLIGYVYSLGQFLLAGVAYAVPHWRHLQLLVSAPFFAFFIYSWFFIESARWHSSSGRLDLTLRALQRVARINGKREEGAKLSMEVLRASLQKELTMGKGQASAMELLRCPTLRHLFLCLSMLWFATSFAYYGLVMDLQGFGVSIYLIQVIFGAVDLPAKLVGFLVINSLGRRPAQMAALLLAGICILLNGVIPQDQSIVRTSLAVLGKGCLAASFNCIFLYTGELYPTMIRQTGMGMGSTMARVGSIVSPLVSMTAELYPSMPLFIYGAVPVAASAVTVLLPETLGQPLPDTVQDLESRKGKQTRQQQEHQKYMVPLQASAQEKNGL
Description: (§1) The trigonelline content of cell lysates was determined by LC-MS/MS. […] 293 cells transfected with pEBTetD plasmids for the expression of SLC22 family carriers as indicated were grown in dishes and incubated overnight with (expression on) or without (off) doxycyclin in standard culture medium. Cells were washed with uptake buffer, incubated (1 min, 37° C.) in uptake buffer with or without 10 μmol/l unlabeled trigonelline, washed, and lysed.
(§2) For measurement of solute uptake, cells were grown in surface culture on 60 mm polystyrol dishes (Nunclon 150288, Nunc, Roskilde, Denmark) precoated with 0.1 g/l poly-L-ornithine in 0.15 M boric acid-NaOH, pH 8.4. Cells were used for uptake experiments at a confluence of at least 70%. Uptake was measured at 37° C. Uptake buffer contains 125 mmol/l NaCl, 25 mmol/l HEPES-NaOH pH 7.4, 5.6 mmol/l (+)glucose, 4.8 mmol/l KCl, 1.2 mmol/l KH2PO4, 1.2 mmol/l CaCl2, and 1.2 mmol/l MgSO4. In glutamate efflux experiments, uptake buffer without KH2PO4 was used to avoid MS interference. After preincubation for at least 20 minutes in 4 ml of uptake buffer, the buffer was replaced with 2 ml of substrate in uptake buffer. The total substrate concentration if not indicated otherwise was 0.1 μmol/l for radiotracer assays and 10 μmol/l for unlabeled compounds. Incubation was stopped after 1 min by rinsing the cells four times each with 4 ml ice-cold uptake buffer. Radioactivity was determined, after cell lysis with 0.1% v/v Triton X-100 in 5 mmol/l TRIS-HCl pH 7.4, by liquid scintillation counting. For LCelectrospray ionization-MS/MS analysis, cells were lysed with methanol and stored at −20° C.
(§3) After centrifugation (1 min, 16000×g, 20° C.) of thawed lysates, 100 μl of the supernatant was mixed with either 10 μl unlabeled MPP+ iodide (0.5 ng/μl) or biphenyl-4-carboxylic acid (Sigma-Aldrich) as internal standard. Of this mixture, […] were analyzed by LCMS/MS on a triple quadrupole mass spectrometer (4000 Q TRAP, Applied Biosystems, Darmstadt, Germany). […] For quantification (scan time 150 ms), the optimal collision energy for argon-induced fragmentation in the second quadrupole was determined for each analyte. […] Sample analyte content was calculated from the analyte response ratio and the slope of the calibration curve, obtained by linear regression. With LC-MS quantitation, solute content of cell lysates was determined for 4 conditions (paired dishes, incubation time 1 min): a) transporter expression on, uptake buffer; b) expression off, uptake buffer; c) expression on, substrate in uptake buffer; d) expression off, substrate in uptake buffer. Acute uptake mediated by heterologously expressed carrier was then calculated as (c−a)−(d−b). […] Protein was measured by the BCA assay (Pierce) with bovine serum albumin as standard. […]

[2] = molecular target: T2, SLC22A13h (Homo sapiens, UniProt Q9Y226); assay: uptake/accumulation in 293 cells expressing SLC22A13h; assay type: cell-based; details: for clearance: 1 min uptake, 0.1 μmol/l radiotracer
T2 construct: expressed in transfected cells; host or cells: 293 cells (HEK-293), pEBTetD plasmid, doxycycline-inducible
T2 sequence (Q9Y226 whole entry): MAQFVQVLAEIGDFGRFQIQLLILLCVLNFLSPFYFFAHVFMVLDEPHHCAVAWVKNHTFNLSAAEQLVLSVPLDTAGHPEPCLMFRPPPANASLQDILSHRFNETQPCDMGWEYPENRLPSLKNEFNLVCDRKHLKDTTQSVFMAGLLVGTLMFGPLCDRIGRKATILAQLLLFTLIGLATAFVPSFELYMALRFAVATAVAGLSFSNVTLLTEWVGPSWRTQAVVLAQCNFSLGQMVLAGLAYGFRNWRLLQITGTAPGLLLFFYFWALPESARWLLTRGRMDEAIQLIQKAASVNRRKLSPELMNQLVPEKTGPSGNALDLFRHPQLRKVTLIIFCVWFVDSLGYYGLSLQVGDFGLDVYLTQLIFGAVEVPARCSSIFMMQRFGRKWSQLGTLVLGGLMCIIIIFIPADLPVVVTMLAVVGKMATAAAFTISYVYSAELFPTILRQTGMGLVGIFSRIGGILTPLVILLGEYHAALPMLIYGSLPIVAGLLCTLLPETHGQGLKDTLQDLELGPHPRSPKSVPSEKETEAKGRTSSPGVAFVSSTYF
Description: as §1, §2, §3

Row | accumulation of trigonelline upon carrier expression (in words) ([1]; expression of OAT1 in 293 cells, FIG. 14) | accumulation of trigonelline upon carrier expression (in words) ([2]; expression of SLC22A13 in 293 cells, FIG. 14) | Structure (SMILES) | transport of glutamate (in words) [1] | clearance [1] [μl min-1 mg protein-1] | transport of glutamate (in words) [2] | clearance [2] [μl min-1 mg protein-1]
1 |  |  | N[C@@H](CCC(=O)O)C(=O)O [glutamate] | do not transport | 2.5±0.4 | do not transport | 0.3±0.6
2 |  |  | O=C(O)c1cc(=O)[nH]c(=O)[nH]1 [orotic acid] |  | 1.6±0.1 |  | 3.8±0.3
3 | without effect | without effect | C[n+]1cccc(C(=O)[O-])c1 [trigonelline] |  |  |  | 
